Data on 2 compounds can be found in patent publication US20240238282A1, “METHODS OF TREATING CANCER AND ISCHEMIA DISEASES BY INHIBITION AND INTERVENTION OF ATR PROLYL ISOMERIZATION” (The University of Toledo, priority 2022, published 2024).

The test system of the experiment is patient derived PDCL5 cells of metastatic pancreatic cancer. Description: Cell killing of patient-derived pancreatic cancer PDCL5 cells by gemcitabine, LB-100 or the combination. The format is cell-based, human. The note with it: single agent: gemcitabine 1.0 uM or LB-100 5 uM, 72 hours (FIG. 3E). The protocol: FIGS. 3A-3E: Analysis of the antiapoptotic function of cis-ATR in human cancer via TCGA data mining. […] FIGS. 3F-3G show two patient-derived pancreatic cancer cells, PDCL5 and PDCL15, subjected to MTT assays after treating with the PDAC therapy drug gemcitabine (1.0 μM or 0.3 μM, respectively) and PP2A inhibitor LB-100 (5 μM), alone or in combination, for 72 hours. PANC-1 cells were treated with gemcitabine (1.0 μM) or FOLFIRINOX (5-FU, 10 μM, oxaliplatin, 0.1 μM, leucovorin, 0.15 μM, irinotecan, 0.1 μM), alone or in combination with LB-100 (1.0 μM), for 72 hours before the MTT assay.
To further validate the above observations are not at random, the 5-year survival probability (SP) of different subgroups was calculated for all 17 cancer types, and paired Wilcoxon rank-sum tests were performed. […] The SP difference of DAPK1 expression level is not significant, likely because DAPK indirectly regulates cis-ATR while ATR is a direct substrate of Pin1 and PP2A. […] This remains true even for the analysis regardless of cancer types (FIG. 3D). […]
MTT viability assays were performed according to the manufacturer's specifications (Cayman's MTT Proliferation Assay kit #10009365), and […]. […]

`CN1CCN(C(=O)C2C3CCC(O3)C2C(=O)O)CC1` (centres unmarked) [LB-100]: the cell death induced entry is reported as “little cell death”.
For `Nc1ccn([C@@H]2O[C@H](CO)[C@@H](O)C2(F)F)c(=O)n1` [Gemcitabine, gemcitabine], the cell death induced result is recorded as “little cell death”.
